Laboratory results published in US20240424115A1, “LONG-ACTING INTERLEUKIN-15 RECEPTOR AGONISTS AND RELATED IMMUNOTHERAPEUTIC COMPOSITIONS AND METHODS” (Nektar Therapeutics, priority 2017, published 2024).

How the values were obtained:
[1] = tested on: CD8 T cells; experiment: Immunophenotypic markers in blood and spleen on Day 13 of the CT-26 lung metastasis study; assay type: in vivo, Balb/c mice
Method: Blood and spleenocytes were analyzed on Day 13 for the changes in the immunophenotypic markers using flow cytometry and marker antibodies conjugated with various fluorochromes. Conjugate 2 administered at 0.3, 1, and 3 mg/kg induced a dose-dependent increase of CD8 T cells 1.5, 2.5, and 3.3-fold versus vehicle in blood, respectively. Similar observations were made in spleen with increases of 1.3, 1.7, and 2.2-fold at 0.3, 1, and 3 mg/kg dose levels versus vehicle.

[2] = tested on: NK cells, CD8 T cells, CD4 T cells; experiment: In vivo PD study in non-human primates: lymphocyte cell numbers and proliferation; parameters: species or system cynomolgus monkeys; conditions: cyno, single i.v. 500 μg/kg
Method: In the study, cynomolgus monkeys, one female and one male, were administered 500 μg/kg of Conjugate 2 intravenously. A series of blood samples were taken from each animal before treatment (day-6 and -1) and at multiple intervals following single dose treatment for assessment by flow cytometry of lymphocyte cell numbers (NK cells, CD8 T-cells, etc.) and activation.
NK cell counts were determined to assess the ability of exemplary Conjugate 2 to induce sustained NK cell proliferation in non-human primates; results are shown in FIGS. 16A and 16B. NK cells and their proliferation in blood from cynomolgus monkey were identified by flow cytometry. Acquisition and analysis of NK cells (CD45+ CD3− CD16+) and their proliferation status (CD45+CD3−CD16+ Ki67+) were conducted using BD FACS DIVA software. Absolute values for NK cells and proliferating NK cells were used to calculate % Ki67 positivity within the NK population. Pre and post-treatment values were plotted using Prism.
CD8 T cell counts were also determined as illustrated in FIG. 17 for each animal from pre-dose to 14 days post-administration. Specifically, CD8 T cells were defined as CD45+CD3+CD4−CD8+. Blood from the monkeys was also subject to immunophenotyping as previously described. In monkey, CD8 T cells increased in a sustained manner, an effect lasting for at least 10 days. This plot further exemplifies the ability of an exemplary long acting IL-15 receptor agonist, Conjugate 2, to induce proliferation and sustained increases in numbers of CD8 T-cells post-administration.
In monkey, CD8 TEM cells were defined as CD45+CD3+CD4−CD8+CD45Ra−CD197− and CD8 Tcm were defined as CD45+CD3+CD4−CD8+CD45Ra−CD197+. Immunophenotyping was conducted by flow cytometry with sample acquisition on DIVA software and data analysis on Flowjo software. Graphs were plotted using Prism. […] The figures indicate that both CD8 effector and central memory T cell populations proliferate in response to exemplary Conjugate 2.
In this study, cynomolgus monkeys (cyno), one female and one male, were each intravenously administered a single dose of Conjugate 1 (0.1 mg/kg). A series of blood samples were taken from each animal over a 14-day time course and subjected to flow cytometry analysis of various lymphocytes (CD8 T cells, Ki-67 percent positivity within total CD8, CD8 central memory T cells (TCM) and CD8 effector memory T cells (Tem), NK cells and Ki-67 percent positivity of NK cells).
(§1) Cynomolgus monkeys (n=3-4 males), were administered a single intravenous injection of Conjugate 1 at 0.003, 0.01, 0.1 mg/kg or a vehicle control. Blood samples were collected at the indicated time points pre and post dose (−5, −2, 1, 2, 3, 4, 5, 6, 7, 10, 14, 17 days) and subjected to flow cytometric analysis to examine pharmacodynamic effects within lymphocyte populations. Proliferation (% Ki-67) and JAK/STAT signaling (% pSTAT5) for NK cells, CD8 T cells, and CD4 T cells were examined, with the results shown in FIGS. 45A-C and FIGS. 46A-C, respectively.
In cynomolgus monkey, CD8 naïve and memory subpopulations were defined by CD45Ra, CD197 and CD95. […] Within the CD8 Tem, […] and Tscm populations, Conjugate 1 induced robust % Ki-67 expression in a dose dependent manner with detectable increases in proliferation marker positivity starting as early as day 2, reaching a maximum at day 5 and returning to baseline between days 10-14. The Ki-67 expression and kinetics within the CD8 populations support the sustained increase in CD8 T cell numbers shown in Example 27 and FIGS. 47A-D.

[3] = tested on: CD4, CD8, and NK cells; experiment: In vivo IL-15 signaling (STAT5 phosphorylation in lymphocytes) in non-human primates; parameters: species or system cynomolgus monkeys; conditions: cyno, single i.v. 0.5 mg/kg
Method: In the study, cynomolgus monkeys (cyno), one female and one male, were each intravenously administered a single dose of Conjugate 2 (0.5 mg/kg). A series of blood samples were taken from each animal both prior to treatment (day-6 and-1) and at multiple intervals following treatment for assessment by flow cytometry of STAT5 phosphorylation in various types of lymphocytes (CD4, CD8, and NK cells). Results are provided in FIGS. 9A (CD4), 9B (CD8), and 9C (NK).
as §1

[4] = tested on: CT-26 cells; experiment: CT-26 lung metastasis model
Method: At day 0, 6-8 week-old female Balb/c mice were inoculated with 1×10^5 mouse CT-26 cells by tail vein injection. On day 1, post 24 h of CT-26 cells being administered, mice were divided into ten groups. […] Each group was assigned one intervention as follows: vehicle, phosphate buffered saline (Group A); native IL-15 alone (Group B); Conjugate 2 at a dose of 0.03 mg/kg (Group C); Conjugate 2 at a dose of 0.1 mg/kg (Group D); Conjugate 2 at a dose of 0.3 mg/kg (Group E); Conjugate 2 at a dose of 1.0 mg/kg (Group F); Conjugate 2 at a dose of 3.0 mg/kg (Group G); for Conjugate 1: vehicle, phosphate buffered saline (Group H); Conjugate 1 at a dose of 0.03 mg/kg (Group I) and Conjugate 1 at a dose of 0.3 mg/kg (Group J). Animals were dosed at days 1, 5, and 10.
Post 13 days from the date of CT-26 tumor cells administration, mice were anesthetized, and blood and spleen cells were collected for further analysis of immunophenotype markers, while lungs were fixed for 24-48 h in Bouins solution containing picric acid and formaldehyde.
The number of lung tumor nodules were counted under a dissection per each lung and mean of lung nodules for each group was determined. The statistical significance was also obtained between the vehicle group vs intervention groups using unpaired students t test.
Balb/c mice received tail vein injection of 1×10^5 CT-26 colorectal carcinoma cells. The following day, mice (n=9/group) were treated weekly, twice, with Conjugate 1 (0.03 or 0.3 mg/kg) or vehicle control. Five days after the second injection, mice were humanely sacrificed and lung nodules were counted.
CT-26 mice (n=7-11/group) were injected with anti-asialo GM1 to deplete NK cells or two different controls (lgG or PBS), then injected with 1×10^5 CT-26 tumor cells. Mice were then treated with Conjugate 2 at 0.3 mg/kg dosed on days 1, 5 and 10 post tumor cell injection or vehicle control. Mice were sacrificed and lung nodules were counted three days after the last day of treatment.

[5] = Single dose PK study in rats (plasma concentration); assay type: in vivo; conditions: rats, single i.v. 0.3, 0.15, 0.075 mg/kg or s.c. 0.15 mg/kg
Method: Following administration, blood was collected at days 1-7 post administration (with multiple samples collected over the first 24 hours following administration). […]

[6] = tested on: CD4, CD8, and NK cells; experiment: In vivo IL-15 signaling (STAT5 phosphorylation in lymphocytes) in mice; conditions: C57BL/6 mice, single i.v. 0.3 mg/kg
Excerpt: Conventional approaches, such as those involving radiolabeling a compound, administering the compound in vivo, and determining its clearance, can be used to assess whether a compound proposed to be a long-acting, IL-15 R agonist is “long-acting” (i.e., has a clearance that is longer than that of IL-15 administered in the same in vivo system). For the purposes herein, the long acting nature of a long-acting IL-15 R agonist may be, and is typically determined using flow cytometry to measure STAT5 phosphorylation in lymphocytes at various time points after administration of the agonist to be evaluated in mice. As a reference, the signal is lost by around 24 hours with IL-15, but is sustained for a period greater than that for a long-acting IL-15 agonist.
Mice were dosed as described in Example 6 above to assess in-vivo signaling as assessed by degree of STAT5 phosphorylation. Degree of STAT5 phosphorylation in various lymphocytes (CD4, CD8, and NK cells) was assessed by staining whole blood for leukocyte surface markers and pSTAT5, followed by measurement by flow cytometry. Results are shown in FIGS. 8A and 8 B for IL-15 and for Conjugate 2, respectively.
[PK methods previously described herein].
STAT5 phosphorylation in CD4 T cells was determined by using a CD3+CD4+CD8-pSTAT5+ marker combination. FIG. 43 is a plot of pSTAT5 phosphorylation percent positivity within CD4 T cells over time (at 0.25, 1, 6, 24, 48, 72, 96 and 120 hours post administration) at a dose of 0.03 mg/kg (blue, solid squares) or 0.3 mg/kg (orange, solid circles). The vehicle over time (black) and pre-dose (open circles) levels are also shown.

[7] = Single dose PK study in mice (plasma concentration); conditions: C57BL/6 mice, single i.v. 0.3 mg/kg
Method: C57BL/6 mice (n=3/group) were administered a single intravenous dose of IL-15 (control) at 0.3 mg/kg) or of Conjugate 2 at a dose of 0.3 mg/kg. Following administration, blood samples were collected at various time points post administration (24 hours, 48 hours, 78 hours, 96 hours). […] Finally, at each time point, plasma concentration of drug was determined.
For PK analysis, Conjugate 1 was administered as a single intravenous dose at 0.3 mg/kg in balb/c mice (n=3). Following administration, mice were humanely sacrificed and plasma was collected 24, 48, 72, 96, 120 and 144 hours post treatment. From a separate study, mice were administered a single intravenous dose of IL-15 (0.5 mg/kg). Samples from these mice were collected at the indicated time points within 6 hours of treatment.
Balb/c mice (n=3/group) were administered a single intravenous dose of IL-15 (500 ug/kg) or of Conjugate 1 at 10, 30, 100, 300 and 1000 μg/kg. Blood samples were collected at the indicated time points post administration (conjugate 1:24, 48, 72, 96, 120, 144, 240 hours; IL-15 control: 0.03, 0.08, 0.25, 0.5, 1, 2, 4, 6, 8, hours) and plasma concentration of drug was determined.

[8] = molecular target: IL-15Rα:Fc; experiment: SPR (BIAcore), IL-15Rα:Fc captured by immobilised goat anti-human Fc, test article injected in 3-fold dilutions from 10 µM
Chain of IL-15Rα:Fc (Q13261 31-205): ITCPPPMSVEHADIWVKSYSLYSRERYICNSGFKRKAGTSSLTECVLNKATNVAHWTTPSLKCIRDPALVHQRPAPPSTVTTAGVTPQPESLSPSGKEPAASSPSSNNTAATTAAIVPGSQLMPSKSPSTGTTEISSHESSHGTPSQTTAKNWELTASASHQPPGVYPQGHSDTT

[9] = molecular target: IL-15Rα:Fc; experiment: SPR (BIAcore), compared with unmodified IL-15
[10] = molecular target: IL-15Rα:Fc; experiment: SPR (BIAcore), IL-15Rα:Fc captured by immobilised goat anti-human Fc, KD from kd/ka

Substance: N-(2-methoxyPEG-ethyl)-7-(4-((2-methoxyPEG-ethyl) amino)-4-oxobutyl)-9-ethyl-9 H-fluorene-4-carboxamide carbamate-IL-15 [Conjugate 2]
- increase of Bcl-2+MFI in CD8 ([1]; blood and spleen): ≤ 1.5 fold
- increase of CD8 T cells versus vehicle ([1]; blood, 0.3 mg/kg): 1.5 fold
- increase of CD8 T cells versus vehicle ([1]; blood, 1 mg/kg): 2.5 fold
- increase of CD8 T cells versus vehicle ([1]; blood, 3 mg/kg): 3.3 fold
- CD8 T cell proliferation (Ki-67) change compared to vehicle ([1]; blood, high dose 3 mg/kg): 5.3 fold
- CD8 T cell proliferation (Ki-67) change compared to vehicle ([1]; blood, low dose 0.3 mg/kg): 1.7 fold
- increase of CD8 T cells versus vehicle ([1]; spleen, 0.3 mg/kg): 1.3 fold
- increase of CD8 T cells versus vehicle ([1]; spleen, 1 mg/kg): 1.7 fold
- increase of CD8 T cells versus vehicle ([1]; spleen, 3 mg/kg): 2.2 fold
- CD8 T cell proliferation (Ki-67) change compared to vehicle ([1]; spleen, high dose 3 mg/kg): 6.9 fold
- CD8 T cell proliferation (Ki-67) change compared to vehicle ([1]; spleen, low dose 0.3 mg/kg): 2.5 fold
- CD8 T cell proliferation (Ki-67) change compared to vehicle ([1]; spleen, mid dose 1 mg/kg): 5.7 fold
- CD8 TEM and TCM cell counts [2]: induces a significant and sustained increase in CD8 effector and central memory T cell populations
- NK cell proliferation (Ki67, cell counts) [2]: effective to induce sustained NK cell proliferation
- duration of CD8 T cell increase [2]: at least 10 days
- return of STAT5 phosphorylation to near pre-dose levels [3]: 5 to 10 days
- efficacy (lung nodule inhibition) after NK cell depletion ([4]; 0.3 mg/kg days 1, 5, 10, anti-asialo GM1): abolished when mice lacked NK cells
- reduction in lung metastases in comparison to vehicle ([4]; Example 13, i.v. days 1, 5, 10, dose not stated): 65%
- exposure to drug [5]: sustained and dose-proportional exposure to drug
- duration of in-vivo STAT5 phosphorylation activity in NK and CD8 cells [6]: > 72 h
- T1/2 [7]: 20 to 30 h
- time with measurable concentrations in plasma [7]: greater than 1 week

Substance: mono-mPEG-SBA40K-IL-15 (Conjugate 1) (from UniProt P40933 49-162) (ligand)
- koff [8]: 0.000103 s⁻¹
- kon [8]: 492000 M⁻¹ s⁻¹
- percent of the alpha receptor affinity of IL-15 retained [9]: 80%
- Kd [10]: 0.209 nM
